Values after ≈ are worked out from the molar mass of the structure shown.
Experiments:
quisqualate receptors = conditions: in words, literature; cited from earlier work
[1] = molecular target: quisqualic acid stimulated 3H-GABA efflux from cultured cortical neurones (quisqualate receptors); assay: Release experiments: antagonism of quisqualic acid stimulated 3H-GABA efflux from cultured cortical neurones; assay type: cell-based, mouse; conditions: Table 1 Ki; test not stated
Method: The pharmacological properties of the compounds of the present invention can be illustrated by determining their capability for displacing radioactively labelled 2-amino-3-hydroxy-5-methyl-4-isoxazolepropionic acid (AMPA) from the quisqualate type receptors. […]
Cerebral cortices of 16 day old mouse embryos are chopped in 0.4×0.4 mm cubes. The tissue is dissociated by mild trypsinization (0.1% (wt/vol) trypsin, 37° C., 15 min) and subsequently inoculated into poly-L-lysine-coated 3 cm Petri dishes containing a slightly modified DMEM (24.5 mM KCl, 30 mM glucose) supplemented with p-aminobenzoate (7 μM), insulin (100 mU/1) and 10% (vol/vol) horse serum. Cells are maintained in culture for 5-7 days with the addition of the antimitotic agent cytosine arbinoside (40 μM) from day 2 in vitro to prevent glial proliferation. For further details and references see Drejer et al. (Exp. Brain Res. 47, 259 (1982)).
Release experiments are performed using the model described by Drejer et al. (Life Sci. 38, 2077 (1986)). Cerebral cortex interneurons cultured in Petri dishes (30 mm) are added 100 μM gamma-vinyl-GABA one hour before the experiment in order to inhibit degradation of GABA in the neurons. 30 min. before the experiment 5 μCi ^3 H-GABA is added to each culture and after this preloading period the cell monolayer at the bottom of the dish is covered with a piece of nylon mesh to protect the cells against mechanical damage and to facilitate dispersion of medium over the cell layer. The preloading medium is removed and the Petri dishes are placed in a superfusion system. This system consists of a peristaltic pump continuously delivering thermostated 37° C. superfusion medium (HEPES buffered saline (HBS): 10 mM HEPES, 135 mM NaCl, 5 mM KCl, 0.6 mM MGSO4, 1.0 mM CaCl2 and 6 mM D-glucose; pH 7.4) from a reservoir to the top of the slightly tilted Petri dish. The medium is continuously collected from the lower part of the dish and delivered to a fraction collector. Initially, the cells are superfused with HBS for 15 min. (flow rate 2 ml/min.). The cells are stimulated for 30 sec. every 4 min. by changing the superfusion medium from HBS to a corresponding medium containing quisqualate and test compound. The release of ^3 H-GABA in the presence of quisqualate (stimulated release in cpm) are corrected for the mean basal release (Cpm) before and after the stimulation.

[2] = molecular target: quisqualate type receptors; assay: 3H-AMPA binding (displacement of 3H-AMPA from quisqualate type receptors, rat cerebral cortical membrane homogenate); conditions: concentration causing 50% displacement of specific 3H-AMPA binding; Hill analysis; pH 7.1, 0° C., 30 min
Method: The pharmacological properties of the compounds of the present invention can be illustrated by determining their capability for displacing radioactively labelled 2-amino-3-hydroxy-5-methyl-4-isoxazolepropionic acid (AMPA) from the quisqualate type receptors.
The displacement activity of the compounds may be shown by determining the IC50 value which represents the concentration (μg/ml) which causes a displacement of 50% of the specific binding of ^3 H-AMPA.
500 μl of thawed rat cerebral cortical membrane homogenate in Tris-HCl (30 mM), CaCl2 (2.5 mM) and KSCN (100 mM) pH 7.1 were incubated at 0° C. for 30 min. with 25 μl ^3 H-AMPA (5 nM final concentration) and the test compound and buffer. Nonspecific binding was determined by incubation with L-glutamic acid (600 μM final concentration). The binding reaction was terminated by adding 5 ml of ice-cold buffer followed by filtration through Whatman GF/C glass fibre filters and 2×5 ml wash with ice-cold buffer. Bound radioactivity was measured by scintillation counting. IC50 was determined by Hill analysis of at least four concentrations of test compound.

[3] = tested on: NMDA (N-methyl-D-aspartate) receptors; conditions: in words, literature; cited from earlier work
kainate receptors = conditions: in words, literature; cited from earlier work

## CCOC(=O)CC[C@H](N)C(=O)OCC [GDEE, Glutamic acid diethyl ester]
Quisqualate receptors
  agonist or antagonist activity on quisqualate receptors: selective but very weak antagonist

## O=c1[nH]c2cc(C(F)(F)F)c(Cl)cc2n(O)c1=O [Example 30 d, 7-chloro-1-hydroxy-6-trifluoromethylquinoxaline-2,3(1H,4H)-dione]
[1]
  Ki: 0.12 µg/mL (≈ 0.428 µM)
[2]
  IC50: 0.37 µg/mL (≈ 1.32 µM)

## N[C@H](CCCC(=O)O)C(=O)O [D-2-amino-adipic acid]
[3]
  agonist or antagonist activity on NMDA receptors: moderate antagonist activity

## Cc1onc(O)c1CC(N)C(=O)O (stereo not drawn) [AMPA, 2-amino-3-hydroxy-5-methyl-4-isoxazolepropionic acid]
Quisqualate receptors
  agonist or antagonist activity on quisqualate receptors: potent agonists

## N[C@@H](CCC(=O)O)C(=O)O [L-glutamic acid]
Quisqualate receptors
  agonist or antagonist activity on quisqualate receptors: potent agonists

## N[C@H](CCC(=O)O)C(=O)O [D-glutamic acid]
[3]
  agonist or antagonist activity on NMDA receptors: strong to moderate agonist activity

## O=C(O)[C@@H]1CCCN[C@H]1C(=O)O (relative stereo) [trans-2,3-PDA, trans-2,3-piperidine dicarboxylic acid]
[3]
  agonist or antagonist activity on NMDA receptors: strong to moderate agonist activity

## N[C@H](C(=O)O)c1cc(=O)[nH]o1 [Ibotenic acid]
[3]
  agonist or antagonist activity on NMDA receptors: strong to moderate agonist activity

## NC(CCC(=O)NCC(=O)O)C(=O)O (stereo not drawn) [3-glutamyl-glycine]
Kainate receptors
  antagonism / inhibition of binding at kainate receptors: some selectivity for kainate receptors

## NS(=O)(=O)c1cc2c(cc1C(F)(F)F)[nH]c(=O)c(=O)n2O [Example 33 d, 1-Hydroxy-7-sulfamoyl-6-trifluoromethylquinoxaline-2,3(1H,4H)-dione]
[1]
  Ki: 0.02 µg/mL (≈ 0.0615 µM)
[2]
  IC50: 0.14 µg/mL (≈ 0.43 µM)

## N[C@@H](CCS(=O)(=O)O)C(=O)O [L-homocysteic acid]
[3]
  agonist or antagonist activity on NMDA receptors: strong to moderate agonist activity

## N[C@H](CCCP(=O)(O)O)C(=O)O [D-APV, 2-amino-5-phosphono-valeric acid]
[3]
  agonist or antagonist activity on NMDA receptors: most potent and selective antagonists

## CC(=O)c1cc2c(cc1C#N)[nH]c(=O)c(=O)n2O [Example 34 e, 7-Acetyl-6-cyano-1-hydroxyquinoxaline-2,3(1H,4H)-dione]
[1]
  Ki: 0.27 µg/mL (≈ 1.1 µM)
[2]
  IC50: 0.09 µg/mL (≈ 0.367 µM)

## N#Cc1cc2c(cc1C(F)(F)F)[nH]c(=O)c(=O)n2O [Example 6 d, 7-Cyano-1-hydroxy-6-trifluoromethylquinoxaline-2,3(1H,4H)-dione]
[1]
  Ki: 0.08 µg/mL (≈ 0.295 µM)
[2]
  IC50: 0.15 µg/mL (≈ 0.553 µM)

## N[C@H](CCCCCP(=O)(O)O)C(=O)O [D-APH, 2-amino-7-phosphonoheptanoic acid]
[3]
  agonist or antagonist activity on NMDA receptors: most potent and selective antagonists

## N[C@H](CCC[C@H](N)C(=O)O)C(=O)O [diaminopimelic acid]
[3]
  agonist or antagonist activity on NMDA receptors: moderate antagonist activity

## N[C@@H](Cn1oc(=O)[nH]c1=O)C(=O)O [quisqualic acid]
Quisqualate receptors
  agonist or antagonist activity on quisqualate receptors: activated selectively

— US5061706A, “2,3-quinoxalinediones for use as neuroleptics” (priority 1988, dated 1991)
